Source: PubChem BioAssay AID248 (DTP/NCI, 2004)
Toxic doses and inconclusive results are not listed.

System: L1210 leukemia ip in BDF1 mice, survival T/C
Test: NCI In Vivo Anticancer Drug Screen. Data for tumor model L1210 Leukemia (intraperitoneal) in B6D2F1 (BDF1) mice
Settings: endpoint: mean survival time, higher = longer survival
How it was run: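 Transplantable tumor model; survival measured in treated vs vehicle control mice. Value = treated/control.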

[1] = dose: 100.0 mg/kg/injection, schedule: Q01DX009 (ip), vehicle: saline with Tween-80
[2] = dose: 200.0 mg/kg/injection, schedule: Q01DX009 (ip), vehicle: saline with Tween-80
[3] = dose: 400.0 mg/kg/injection, schedule: Q01DX009 (ip), vehicle: saline with Tween-80
[4] = dose: 100.0 mg/kg/injection, schedule: Q04DX002 (ip), vehicle: Klucel (hydroxypropylcellulose) (HPC)
[5] = dose: 200.0 mg/kg/injection, schedule: Q04DX002 (ip), vehicle: Klucel (hydroxypropylcellulose) (HPC)
[6] = dose: 400.0 mg/kg/injection, schedule: Q04DX002 (ip), vehicle: Klucel (hydroxypropylcellulose) (HPC)
[7] = dose: 100.0 mg/kg/injection, schedule: Q04DX003 (ip), vehicle: Klucel (hydroxypropylcellulose) (HPC)
[8] = dose: 200.0 mg/kg/injection, schedule: Q04DX003 (ip), vehicle: Klucel (hydroxypropylcellulose) (HPC)
[9] = dose: 400.0 mg/kg/injection, schedule: Q04DX003 (ip), vehicle: Klucel (hydroxypropylcellulose) (HPC)
[10] = dose: 100.0 mg/kg/injection, schedule: Q01DX009 (ip), vehicle: Klucel (hydroxypropylcellulose) (HPC)
[11] = dose: 200.0 mg/kg/injection, schedule: Q01DX009 (ip), vehicle: Klucel (hydroxypropylcellulose) (HPC)
[12] = dose: 400.0 mg/kg/injection, schedule: Q01DX009 (ip), vehicle: Klucel (hydroxypropylcellulose) (HPC)
[13] = dose: 100.0 mg/kg/injection, schedule: Q01DX001 (ip), vehicle: saline
[14] = dose: 100.0 mg/kg/injection, schedule: Q01DX001 (ip), vehicle: saline with Tween-80
[15] = dose: 100.0 mg/kg/injection, schedule: Q04DX003 (ip), vehicle: saline with Tween-80
[16] = dose: 200.0 mg/kg/injection, schedule: Q04DX003 (ip), vehicle: saline with Tween-80
[17] = dose: 400.0 mg/kg/injection, schedule: Q04DX003 (ip), vehicle: saline with Tween-80
[18] = dose: 100.0 mg/kg/injection, schedule: Q04DX003 (ip), vehicle: saline

Structure (SMILES): CCOC(=O)c1ccc(NC(=O)Nc2ccc(SC)cc2)cc1N(CC)CC
- T/C [1]: 104 % of control
- T/C [2]: 94 % of control
- T/C [3]: 92 % of control

Structure (SMILES): Nc1ccnc(SCc2ccc(Cl)cc2)n1
- T/C (dose: 100.0 mg/kg/injection, schedule: Q04DX003 (ip), vehicle: gum acacia): 105 % of control
- T/C (dose: 200.0 mg/kg/injection, schedule: Q04DX003 (ip), vehicle: gum acacia): 104 % of control
- T/C (dose: 400.0 mg/kg/injection, schedule: Q04DX003 (ip), vehicle: gum acacia): 98 % of control

Structure (SMILES): Cc1ccc(NC(=O)N2CC2C)cc1NC(=O)N1CC1C (stereo not given)
- T/C (dose: 2.5 mg/kg/injection, schedule: Q01DX009 (ip), vehicle: saline): 118 % of control
- T/C (dose: 20.0 mg/kg/injection, schedule: Q01DX009 (ip), vehicle: saline): 197 % of control

Structure (SMILES): CCN(CC#CCOc1ccc(Cl)cc1Cl)c1ccccc1
- T/C [4]: 109 % of control
- T/C [5]: 98 % of control
- T/C [6]: 102 % of control

Structure (SMILES): CCOC(=O)c1cnc(SC)nc1Nc1c(Br)cc(Br)cc1Br
- T/C (dose: 12.5 mg/kg/injection, schedule: Q01DX009 (ip), vehicle: Klucel (hydroxypropylcellulose) (HPC)): 102 % of control
- T/C (dose: 12.5 mg/kg/injection, schedule: Q04DX003 (ip), vehicle: Klucel (hydroxypropylcellulose) (HPC)): 97 % of control
- T/C (dose: 25.0 mg/kg/injection, schedule: Q01DX009 (ip), vehicle: Klucel (hydroxypropylcellulose) (HPC)): 102 % of control
- T/C (dose: 25.0 mg/kg/injection, schedule: Q04DX003 (ip), vehicle: Klucel (hydroxypropylcellulose) (HPC)): 94 % of control
- T/C (dose: 50.0 mg/kg/injection, schedule: Q01DX009 (ip), vehicle: Klucel (hydroxypropylcellulose) (HPC)): 105 % of control
- T/C (dose: 50.0 mg/kg/injection, schedule: Q04DX003 (ip), vehicle: Klucel (hydroxypropylcellulose) (HPC)): 103 % of control

Structure (SMILES): Cc1cc(OCC(=O)O)c(Cl)cc1Cl
- T/C (dose: 50.0 mg/kg/injection, schedule: Q01DX009 (ip), vehicle: saline with Tween-80): 92 % of control
- T/C [1]: 99 % of control

Structure (SMILES): O=C(Nc1ccccc1F)C(F)(F)F
- T/C [7]: 103 % of control
- T/C [8]: 105 % of control
- T/C [9]: 97 % of control

Structure (SMILES): CCCCC1=C(c2ccccc2)C(=O)OC1=O
- T/C [10]: 95 % of control
- T/C [7]: 88 % of control
- T/C [11]: 95 % of control
- T/C [8]: 98 % of control
- T/C [12]: 100 % of control
- T/C [9]: 89 % of control

Structure (SMILES): Clc1ccccc1OB(Oc1ccccc1Cl)Oc1ccccc1Cl
- T/C [13]: 101 % of control
- T/C (dose: 200.0 mg/kg/injection, schedule: Q01DX001 (ip), vehicle: saline): 95 % of control

Structure (SMILES): O=C1CCC(=S)N1c1ccccc1
- T/C [7]: 101 % of control
- T/C [8]: 100 % of control
- T/C [9]: 95 % of control

Structure (SMILES): CC1(OC(=O)c2ccc([N+](=O)[O-])cc2)CC2CCC1C2 (stereo not given)
- T/C [14]: 98 % of control
- T/C (dose: 200.0 mg/kg/injection, schedule: Q01DX001 (ip), vehicle: saline with Tween-80): 91 % of control
- T/C (dose: 400.0 mg/kg/injection, schedule: Q01DX001 (ip), vehicle: saline with Tween-80): 104 % of control

Structure (SMILES): CCCCCCCCCCCCCCCOc1ccc(C)cc1
- T/C [7]: 93 % of control
- T/C [8]: 101 % of control
- T/C [9]: 95 % of control

Structure (SMILES): O=CN/N=C/c1cc(Cl)cc(Cl)c1O
- T/C [7]: 100 % of control
- T/C [8]: 92 % of control
- T/C [9]: 94 % of control

Structure (SMILES): Cc1cc(Cl)c(Cl)cc1NC(=O)c1cccc([N+](=O)[O-])c1
- T/C [10]: 93 % of control
- T/C [11]: 96 % of control
- T/C [12]: 100 % of control

Structure (SMILES): O=C(O)CC(CS(=O)O)C(=O)O (stereo not given)
- T/C [14]: 91 % of control

Structure (SMILES): C#CCCCCCC#[C][Hg][C]#CCCCCCC#C.C#CCCCCCC#[C][Hg][C]#CCCCCCC#C
- T/C (dose: 75.0 mg/kg/injection, schedule: Q01DX001 (ip), vehicle: saline): 90 % of control
- T/C (dose: 150.0 mg/kg/injection, schedule: Q01DX001 (ip), vehicle: saline): 92 % of control
- T/C (dose: 300.0 mg/kg/injection, schedule: Q01DX001 (ip), vehicle: saline): 95 % of control

Structure (SMILES): CC(O)c1ccc2c(c1)Nc1ccccc1S2 (stereo not given)
- T/C (dose: 100.0 mg/kg/injection, schedule: Q04DX002 (ip), vehicle: saline with Tween-80): 91 % of control
- T/C (dose: 200.0 mg/kg/injection, schedule: Q04DX002 (ip), vehicle: saline with Tween-80): 105 % of control
- T/C (dose: 400.0 mg/kg/injection, schedule: Q04DX002 (ip), vehicle: saline with Tween-80): 91 % of control

Structure (SMILES): CN1C(=O)CC(C(=O)CBr)(c2ccccc2)C1=O (stereo not given)
- T/C (dose: 25.0 mg/kg/injection, schedule: Q04DX003 (ip), vehicle: saline with Tween-80): 109 % of control
- T/C (dose: 50.0 mg/kg/injection, schedule: Q04DX003 (ip), vehicle: saline with Tween-80): 101 % of control

Structure (SMILES): CNc1ncnc2nc(Cl)[nH]c12
- T/C [13]: 108 % of control

Structure (SMILES): O=C1NC2Cc3ccccc3CC12 (stereo not given)
- T/C [4]: 102 % of control
- T/C [5]: 100 % of control
- T/C [6]: 86 % of control

Structure (SMILES): COSc1ccc([N+](=O)[O-])cc1[N+](=O)[O-]
- T/C [15]: 96 % of control
- T/C [16]: 100 % of control
- T/C [17]: 103 % of control

Structure (SMILES): CC1C[N-]CC(C)C1.CC1C[N-]CC(C)C1.CC1C[N-]CC(C)C1.CC1C[N-]CC(C)C1.[Cl][Rh][Cl] (stereo not given)
- T/C (dose: 1.5 mg/kg/injection, schedule: Q01DX009 (ip), vehicle: gum acacia): 98 % of control
- T/C (dose: 3.0 mg/kg/injection, schedule: Q01DX009 (ip), vehicle: gum acacia): 96 % of control
- T/C (dose: 6.0 mg/kg/injection, schedule: Q01DX009 (ip), vehicle: gum acacia): 100 % of control
- T/C (dose: 12.5 mg/kg/injection, schedule: Q04DX003 (ip), vehicle: gum acacia): 100 % of control
- T/C (dose: 25.0 mg/kg/injection, schedule: Q04DX003 (ip), vehicle: gum acacia): 93 % of control

Structure (SMILES): COc1ccc(C(=O)C(O)O)cc1
- T/C (dose: 100.0 mg/kg/injection, schedule: Q01DX009 (ip), vehicle: saline): 100 % of control
- T/C [18]: 103 % of control
- T/C (dose: 200.0 mg/kg/injection, schedule: Q01DX009 (ip), vehicle: saline): 96 % of control
- T/C (dose: 200.0 mg/kg/injection, schedule: Q04DX003 (ip), vehicle: saline): 98 % of control
- T/C (dose: 400.0 mg/kg/injection, schedule: Q01DX009 (ip), vehicle: saline): 112 % of control
- T/C (dose: 400.0 mg/kg/injection, schedule: Q04DX003 (ip), vehicle: saline): 103 % of control

Structure (SMILES): CN(C)CC(CN1c2ccccc2Sc2ccccc21)N(C)C (stereo not given)
- T/C (dose: 6.25 mg/kg/injection, schedule: Q01DX009 (ip), vehicle: saline): 94 % of control
- T/C (dose: 12.5 mg/kg/injection, schedule: Q01DX009 (ip), vehicle: saline): 105 % of control
- T/C (dose: 25.0 mg/kg/injection, schedule: Q01DX009 (ip), vehicle: saline): 92 % of control
- T/C (dose: 25.0 mg/kg/injection, schedule: Q04DX003 (ip), vehicle: saline): 96 % of control
- T/C (dose: 50.0 mg/kg/injection, schedule: Q01DX009 (ip), vehicle: saline): 101 % of control
- T/C (dose: 50.0 mg/kg/injection, schedule: Q04DX003 (ip), vehicle: saline): 93 % of control
- T/C [18]: 90 % of control

Structure (SMILES): C1CCC(N2OC23CCCCC3)CC1 (stereo not given)
- T/C (dose: 100.0 mg/kg/injection, schedule: Q01DX001 (ip), vehicle: carboxymethylcellulose (CMC)): 92 % of control
- T/C (dose: 200.0 mg/kg/injection, schedule: Q01DX001 (ip), vehicle: carboxymethylcellulose (CMC)): 90 % of control
- T/C (dose: 400.0 mg/kg/injection, schedule: Q01DX001 (ip), vehicle: carboxymethylcellulose (CMC)): 92 % of control

Structure (SMILES): O=C1c2ccccc2C(O)N1c1ccccc1 (stereo not given)
- T/C [13]: 86 % of control
- T/C (dose: 400.0 mg/kg/injection, schedule: Q01DX001 (ip), vehicle: saline): 104 % of control

Structure (SMILES): CC(=O)c1ccc[n+](Cc2ccc3c(c2)OCO3)c1
- T/C (dose: 75.0 mg/kg/injection, schedule: Q01DX001 (ip), vehicle: carboxymethylcellulose (CMC)): 103 % of control
- T/C (dose: 150.0 mg/kg/injection, schedule: Q01DX001 (ip), vehicle: carboxymethylcellulose (CMC)): 109 % of control

Structure (SMILES): O=C(O)C1CCCCC1C(=O)Nc1ccc(Br)cc1 (stereo not given)
- T/C [4]: 100 % of control
- T/C [5]: 100 % of control
- T/C [6]: 118 % of control

Structure (SMILES): COC(=O)C(O)c1cccc(OC)c1 (stereo not given)
- T/C [1]: 96 % of control
- T/C [15]: 107 % of control
- T/C [2]: 93 % of control
- T/C [16]: 96 % of control
- T/C [3]: 104 % of control
- T/C [17]: 105 % of control
